# Results reported in patent US10487093B2, “Heterocyclic compounds, in particular 2-oxo-4,4,5,5,6,6,7,7-octahydrobenzoxazole derivatives, and their use as antibacterial compounds” (priority 2016, dated 2019).
# Columns and labels:
# [1] = system: Mycobacterium smegmatis ATCC 19420; test: MIC, broth microdilution (CLSI) versus planktonic bacteria; type: cell-based; details: Mycolicibacterium smegmatis, ATCC19420, 16-20 h, mode of three independent experiments, read-out: MIC, Ms ATCC 19420
# [2] = system: Enterobacter cloacae NCTC 13406; test: as above; type: cell-based; details: NCTC13406; Enterobacter cloacae NCTC 13406; 16-20 h; mode of three independent experiments; read-out: MIC, Ecl NCTC 13406
# [3] = system: Haemophilus influenzae ATCC 49247; test: as above; type: cell-based; details: ATCC49247; Haemophilus influenzae ATCC 49247; 16-20 h; mode of three independent experiments; read-out: MIC, Hi ATCC 49247
# [4] = system: Staphylococcus aureus ATCC 29213; test: as above; type: cell-based; details: ATCC29213; Staphylococcus aureus ATCC 29213; 16-20 h; mode of three independent experiments; read-out: MIC, Sa ATCC 29213
# [5] = system: Pseudomonas aeruginosa ATCC 27853; test: as above; type: cell-based; details: ATCC27853; Pseudomonas aeruginosa ATCC 27853; 16-20 h; mode of three independent experiments; read-out: MIC, Pa ATCC 27853
# [6] = system: Escherichia coli ATCC 25922; test: as above; type: cell-based; details: ATCC25922; Escherichia coli ATCC 25922; 16-20 h; mode of three independent experiments; read-out: MIC, Ec ATCC 25922
# [7] = system: Streptococcus pneumoniae ATCC 49619; test: as above; type: cell-based; details: ATCC49619; Streptococcus pneumoniae ATCC 49619; 16-20 h; mode of three independent experiments; read-out: MIC, Sp ATCC 49619
# [8] = system: human hepatic cell line (HepG2 ATCC HB-8065); test: Human cell viability assay (CellTiter-Glo); details: Homo sapiens, HepG2, 24 h, read-out: IC50 (μg/mL) HepG2
# [9] = system: Acinetobacter baumannii NCTC 13420; test: MIC, broth microdilution (CLSI) versus planktonic bacteria; type: cell-based; details: NCTC13420; Acinetobacter baumannii NCTC 13420; 16-20 h; mode of three independent experiments; read-out: MIC, Ab NCTC 13420
# E. coli ATCC BAA-2452 = test: as above; type: cell-based; details: Escherichia coli ATCC BAA-2452; 16-20 h; mode of three independent experiments; read-out: MIC, Ec ATCC BAA 2452
# [10] = system: Enterococcus faecalis ATCC 29212; test: as above; type: cell-based; details: ATCC29212, 16-20 h, mode of three independent experiments, read-out: MIC, Ef ATCC 29212
# [11] = system: Acinetobacter baumannii ATCC 19606; test: as above; type: cell-based; details: ATCC19606; Acinetobacter baumannii ATCC 19606; 16-20 h; mode of three independent experiments; read-out: MIC, Ab ATCC 19606
# E. coli MG1655 = test: as above; type: cell-based, Escherichia coli; details: Escherichia coli, MG1655, read-out: MIC, Ec MG1655 WT
# [12] = system: Enterococcus faecium ATCC 19434; test: as above; type: cell-based; details: ATCC19434, 16-20 h, mode of three independent experiments, read-out: MIC, Efm ATCC 19434
# E. coli MG1655 S83L = type: cell-based, Escherichia coli; details: compared to the isogenic parent strain E. coli MG1655; S83L mutation on DNA gyrase subunit GyrA
# [13] = system: fluoroquinolone-resistant Enterococcus faecium ATCC 700221; test: MIC, broth microdilution (CLSI) versus planktonic bacteria; type: cell-based; details: ATCC700221, 16-20 h, mode of three independent experiments, read-out: MIC, Efm ATCC 700221
# E. coli NCTC 13476 = test: as above; type: cell-based; details: NCTC13476; Escherichia coli NCTC 13476; 16-20 h; mode of three independent experiments; read-out: MIC, Ec NCTC 13476
# E. coli MG1655 D87G = type: cell-based, Escherichia coli; details: compared to the isogenic parent strain E. coli MG1655; D87G mutation on DNA gyrase subunit GyrA
SMILES,MIC [1],MIC [2],MIC [3],MIC [4],MIC [5],MIC [6],MIC [7],IC50 [8],MIC [9],MIC (E. coli ATCC BAA-2452),MIC [10],MIC [11],MIC (E. coli MG1655),MIC [12],"Fold increase in MIC, E. coli MG1655 S83L (E. coli MG1655 S83L)",MIC [13],MIC (E. coli NCTC 13476),"Fold increase in MIC, E. coli MG1655 D87G (E. coli MG1655 D87G)"
"NCCCOc1ccc2ccc(=O)n(CCN[C@H]3CC[C@H]4[C@@H](C3)OC(=O)N4c3ccc4c(n3)NC(=O)CO4)c2n1 [Compound 5, 1-(2-{[(3aS,6S,7aR)-2-oxo-3-{3-oxo-2H,3H,4H-pyrido[3,2-b][1,4]oxazin-6-yl}-octahydro-1,3-benzoxazol-6-yl]amino}ethyl)-7-(3-aminopropoxy)-1,2-dihydro-1,8-naphthyridin-2-one]",1 to 10 µg/mL,> 100 µg/mL,> 100 µg/mL,1 to 10 µg/mL,1 to 10 µg/mL,10 to 100 µg/mL,10 to 100 µg/mL,> 100 µg/mL,> 100 µg/mL,–,–,–,–,–,–,–,–,–
"N#Cc1cccc(-c2cccc(CN[C@@H]3CC[C@@H]4[C@@H](C3)OC(=O)N4c3ccc4c(n3)NC(=O)CO4)c2O)n1 [Compound 40, 6-[3-({[(3aR,6R,7aR)-2-oxo-3-{3-oxo-2H,3H,4H-pyrido[3,2-b][1,4]oxazin-6-yl}-octahydro-1,3-benzoxazol-6-yl]amino}methyl)-2-hydroxyphenyl]pyridine-2-carbonitrile]",–,< 1 µg/mL,< 1 µg/mL,< 1 µg/mL,< 1 µg/mL,< 1 µg/mL,1 to 10 µg/mL,10 to 100 µg/mL,< 1 µg/mL,< 1 µg/mL,< 1 µg/mL,< 1 µg/mL,< 1 µg/mL,< 1 µg/mL,1 fold,< 1 µg/mL,< 1 µg/mL,1 fold
"N#Cc1ccc2ccc(=O)n(CCN[C@@H]3CC[C@@H]4[C@@H](C3)OC(=O)N4c3ccc4c(n3)NC(=O)CO4)c2c1 [Compound 59, 1-(2-{[(3aR,6R,7aR)-2-oxo-3-{3-oxo-2H,3H,4H-pyrido[3,2-b][1,4]oxazin-6-yl}-octahydro-1,3-benzoxazol-6-yl]amino}ethyl)-2-oxo-1,2-dihydroquinoline-7-carbonitrile]",–,< 1 µg/mL,< 1 µg/mL,< 1 µg/mL,< 1 µg/mL,< 1 µg/mL,< 1 µg/mL,10 to 100 µg/mL,< 1 µg/mL,< 1 µg/mL,< 1 µg/mL,< 1 µg/mL,< 1 µg/mL,< 1 µg/mL,1 fold,< 1 µg/mL,< 1 µg/mL,1 fold
"COc1ccc2ccc(=O)n(CCN[C@H]3CC[C@H]4[C@H](C3)OC(=O)N4c3ccc4c(n3)NC(=O)CS4)c2n1 [Compound 61, 1-(2-{[(3aS,6S,7aS)-2-oxo-3-{3-oxo-2H,3H,4H-pyrido[3,2-b][1,4]thiazin-6-yl}-octahydro-1,3-benzoxazol-6-yl]amino}ethyl)-7-methoxy-1,2-dihydro-1,8-naphthyridin-2-one]",–,< 1 µg/mL,< 1 µg/mL,< 1 µg/mL,< 1 µg/mL,< 1 µg/mL,< 1 µg/mL,10 to 100 µg/mL,< 1 µg/mL,< 1 µg/mL,< 1 µg/mL,< 1 µg/mL,< 1 µg/mL,< 1 µg/mL,1 fold,< 1 µg/mL,< 1 µg/mL,1 fold
"COc1cccc(-c2cccc(CN[C@@H]3CC[C@@H]4[C@@H](C3)OC(=O)N4c3ccc4c(n3)NC(=O)CO4)c2)n1 [Compound 80, (3aR,6R,7aR)-6-({[3-(6-methoxypyridin-2-yl)phenyl]methyl}amino)-3-{3-oxo-2H,3H,4H-pyrido[3,2-b][1,4]oxazin-6-yl}-octahydro-1,3-benzoxazol-2-one]",–,1 to 10 µg/mL,< 1 µg/mL,< 1 µg/mL,1 to 10 µg/mL,< 1 µg/mL,1 to 10 µg/mL,10 to 100 µg/mL,< 1 µg/mL,< 1 µg/mL,< 1 µg/mL,< 1 µg/mL,< 1 µg/mL,1 to 10 µg/mL,1 fold,1 to 10 µg/mL,< 1 µg/mL,1 fold
"COc1cnc2ccc(=O)n(CCN[C@H]3CC[C@H]4[C@H](C3)OC(=O)N4c3ccc4c(n3)NC(=O)CS4)c2c1 [Compound 81, 1-(2-{[(3aS,6S,7aS)-2-oxo-3-{3-oxo-2H,3H,4H-pyrido[3,2-b][1,4]thiazin-6-yl}-octahydro-1,3-benzoxazol-6-yl]amino}ethyl)-7-methoxy-1,2-dihydro-1,5-naphthyridin-2-one]",–,< 1 µg/mL,< 1 µg/mL,< 1 µg/mL,1 to 10 µg/mL,< 1 µg/mL,< 1 µg/mL,10 to 100 µg/mL,< 1 µg/mL,< 1 µg/mL,< 1 µg/mL,< 1 µg/mL,< 1 µg/mL,< 1 µg/mL,1 fold,< 1 µg/mL,< 1 µg/mL,1 fold
"CCCOc1ccc2ccc(=O)n(CCN[C@H]3CC[C@H]4[C@H](C3)OC(=O)N4c3ccc4c(n3)NC(=O)CO4)c2c1 [Compound 91, 1-(2-{[(3aS,6S,7aS)-2-oxo-3-{3-oxo-2H,3H,4H-pyrido[3,2-b][1,4]oxazin-6-yl}-octahydro-1,3-benzoxazol-6-yl]amino}ethyl)-7-propoxy-1,2-dihydroquinolin-2-one]",–,1 to 10 µg/mL,< 1 µg/mL,< 1 µg/mL,10 to 100 µg/mL,< 1 µg/mL,< 1 µg/mL,10 to 100 µg/mL,< 1 µg/mL,< 1 µg/mL,1 to 10 µg/mL,< 1 µg/mL,< 1 µg/mL,1 to 10 µg/mL,0.5 fold,1 to 10 µg/mL,1 to 10 µg/mL,1 fold
